Molecular target: Protein kinase C alpha type (Homo sapiens) (UniProt P17252)
Test: Effect on diacylglycerol induced (DAG) PKC activation at 1-10 uM
Format: functional

- Activity: 40%
SMILES: O=C(O)CCCCCCC/C=C/CCCCCCCCOc1cc(C2(C(F)(F)F)N=N2)ccc1I
